In patent US8815879B2, “Substituted 4-(selenophen-2(or-3)-ylamino)pyrimidine compounds and methods of use thereof” (Kasina Laila Innova Pharmaceuticals Private Limited, priority 2010, dated 2014):
“Also recorded” adds a separate entry of the source. Structures can show the parent of a compound that is named as a salt.

Key:
[1] = tested on: human lung carcinoma A549 cells; assay: MTT based cell proliferation assay, A549; conditions: for IC50 / inhibition at 10 µg/mL: Homo sapiens, A549, 72 h; for IC50: read-out: Cell Proliferation Inhibition in A549 (Lung carcinoma), IC50; for inhibition at 10 µg/mL: read-out: Cell Proliferation Inhibition in A549 (Lung carcinoma), % at highest screening dose
[2] = tested on: human colorectal carcinoma HT29 cells; assay: MTT based cell proliferation assay, HT29; conditions: for IC50 / inhibition at 10 µg/mL: Homo sapiens, HT-29, 72 h; for IC50: read-out: Cell Proliferation Inhibition in HT29 (Colon carcinoma), IC50; for inhibition at 10 µg/mL: read-out: Cell Proliferation Inhibition in HT29 (Colon carcinoma), % at highest screening dose
[3] = tested on: human prostate DU145 cells; assay: MTT based cell proliferation assay, DU145; conditions: for IC50 / inhibition at 10 µg/mL: Homo sapiens, DU-145, 72 h; for IC50: read-out: Cell Proliferation Inhibition in DU145 (Prostate carcinoma), IC50; for inhibition at 10 µg/mL: read-out: Cell Proliferation Inhibition in DU145 (Prostate carcinoma), % at highest screening dose
[4] = tested on: HepG2 (Hepatocellular Carcinoma); assay: cells; type: cell-based; conditions: for IC50: Homo sapiens, HepG2, MTT, read-out: Cell proliferation inhibition (IC50) in HepG2 (Hepatocellular Carcinoma); for potency compared to Iressa, HepG2: ratio of IC50 values
Method: (§1) MTT [3-(4,5-dimethylthiazol-2-yl)-2,5-diphenyltetrazolium bromide] incorporation based cell proliferation assay was performed using standard procedure. […] The assay was carried out according to the instructions provided by the vendor. […] Vehicle control culture wells received only a maximum of 0.5% DMSO. Thereafter, 0.5 mg/ml of MTT reagent was added to each well and the microplate was incubated further for 4 h at 37° C. in presence of 5% CO2. Finally, the cells were solubilized by adding solubilizing solution and allowed to incubate at 37° C. overnight. After complete solubilization of the formazan crystals the absorbance was read at 540 nm in a microplate reader (BioRad, USA).
(§2) The evaluation of cell proliferation inhibitory activities of the compounds was done in two phases—(1) Screening, and (2) half-maximal inhibitory concentration (IC50) determination. In the screening phase, the cells were treated with three different concentrations e.g. 1, 5 and 10 μg/ml.

[5] = tested on: human breast carcinoma (estrogen receptor negative) MDA-MB-231 cells; assay: cells; type: cell-based; conditions: for IC50: Homo sapiens, MDA-MB-231, MTT, read-out: Cell proliferation inhibition (IC50) in MDA-MB-231 (Breast Carcinoma); for potency compared to Iressa, MDA-MB-231: ratio of IC50 values
Method: as §1, §2

[6] = tested on: human cervical carcinoma HeLa cells; assay: cells; type: cell-based; conditions: for IC50: Homo sapiens, HeLa, MTT, read-out: Cell proliferation inhibition (IC50) in HeLa (Cervical Carcinoma); for potency compared to Iressa, HeLa: ratio of IC50 values
Method: as §1, §2

[7] = tested on: Human umbilical vein endothelial cells (HUVEC); assay: In vitro endothelial capillary formation assay; type: cell-based; conditions: HUVEC on Cultrex, 10 ng/ml FGF, Compound 27 at 0.5, 1.0, 2.5 and 5 μg/ml, 16 h
Method: Human umbilical vein endothelial cells (HUVECs) were laid on Cultrex coated plates in presence of either 10 ng/ml human recombinant Fibroblast Growth Factor (FGF) alone (B) or concomitantly with Compound 27 at 0.5, 1.0, 2.5 and 5 μg/ml C, D, E, and F, respectively. The cells in presence of treatments were allowed to form endothelial capillary tubes for 16 h at 37° C. Panel A represents capillary-like endothelial tube formation in 0.1% DMSO treated vehicle control wells.
In vitro capillary formation assay was performed with Human umbilical vein endothelial cells (HUVEC), cultured on 10 mg/ml basement membrane extract (BME—Cultrex®, R&D Systems, USA) bed. Four hundred microliters of Cultrex was coated at 4° C. in each well of 24-well culture plate and allowed to gel at 37° C. for 1 h. HUVECs were plated at a density of 1×10^5 cells per well with 400 μl of EGM-2 medium (Lonza Walkersville Inc. Walkersville, Md.). The cells were then treated with either 10 ng/ml of Human recombinant Fibroblast Growth Factor (FGF, R&D Systems, Minneapolis, Minn.)) alone or concurrently with different concentrations of Compound 27 for 16 hours. Vehicle control cultures received only 0.1% DMSO. Pictures were taken under a Nikon Eclipse TS 100 microscope equipped with a Nikon Coolpix camera. […] In contrast, FGF promoted human endothelial capillary formation in vitro (FIG. 1).

`COc1cc2ncnc(Nc3cc(C(N)=O)[se]c3C)c2cc1OCCCN1CCOCC1` (as salt: HCl) [Compound 11, 4-(6-(3-morpholinopropoxy)-7-methoxyquinazolin-4-ylamino)-5-methylselenophene-2-carboxamide] gave a melting point of 252 to 254 °C.

With `CC(C)(C)c1cc(Nc2ncnc3ncccc23)c(C(N)=O)[se]1` (as salt: HCl) [Compound 12, 5-tert-butyl-3-(pyridino[2,3-d]pyrimidin-4-ylamino)selenophene-2-carboxamide] the melting point was 242 to 244 °C.

`CCc1c(C)sc2ncnc(Nc3cc(C(C)(C)C)[se]c3C(N)=O)c12` (as salt: HCl) [Compound 13, 3-(5-ethyl-6-methylthiopheno[2,3-d]pyrimidin-4-ylamino)-5-tert-butylselenophene-2-carboxamide] gave a melting point of 258 to 260 °C.

For `CC(C)(C)c1cc(Nc2ncnc3cc(C(C)(C)C)[se]c23)c(C(N)=O)[se]1` (as salt: HCl) [Compound 18, 3-(6-tert-butylselenopheno[3,2-d]pyrimidin-4-ylamino)-5-tert-butylselenophene-2-carboxamide], the melting point was 212 to 214 °C.

`CCc1c(C)[se]c2ncnc(Nc3cc(C(C)(C)C)[se]c3C(N)=O)c12` (as salt: HCl) [Compound 19, 3-(5-ethyl-6-methylselenopheno[2,3-d]pyrimidin-4-ylamino)-5-tert-butylselenophene-2-carboxamide] showed a melting point of 278 to 280 °C.

Compound `COc1cc2ncnc(N(C)c3cc(C(C)(C)C)[se]c3C(N)=O)c2cc1OCCCN1CCOCC1` (as salt: HCl) [Compound 22, 3-(N-(6-(3-morpholinopropoxy)-7-methoxyquinazolin-4-yl)-N-methylamino)-5-tert-butylselenophene-2-carboxamide] has a melting point of 254 to 256 °C.

In the case of `COc1cc2ncnc(N(CCCl)c3cc(C(C)(C)C)[se]c3C(N)=O)c2cc1OCCCN1CCOCC1` (as salt: HCl) [Compound 23, 3-(N-(6-(3-morpholinopropoxy)-7-methoxyquinazolin-4-yl)-N-(2-chloroethyl)amino)-5-tert-butylselenophene-2-carboxamide], the melting point is reported as 190 to 192 °C.

For `COc1cc2nc(C)nc(Nc3cc(C(C)(C)C)[se]c3C(N)=O)c2cc1OC` (as salt: HCl) [Compound 24, 3-(6,7-dimethoxy-2-methylquinazolin-4-ylamino)-5-tert-butylselenophene-2-carboxamide], the melting point was 282 to 284 °C.

In the case of `COC(=O)c1cc(Nc2nc(C)nc3cc(OC)c(OC)cc23)c(C)[se]1` (as salt: HCl) [Compound 25, methyl 4-(6,7-dimethoxy-2-methylquinazolin-4-ylamino)-5-methylselenophene-2-carboxylate], the melting point is reported as 276 to 280 °C.

Work on `COc1cc2nc(CN(C)C)nc(Nc3cc(C(C)(C)C)[se]c3C(N)=O)c2cc1OC` (as salt: HCl) [Compound 27] yielded a melting point of 226 to 228 °C.

In the case of `COc1cc2ncnc(Nc3cc(C(C)(C)C)[se]c3C(N)=O)c2cc1OC` [Compound 1, 3-(6,7-dimethoxyquinazolin-4-ylamino)-5-tert-butylselenophene-2-carboxamide], the melting point is reported as 234 to 238 °C, the IC50 [1] is reported as 9.08 µM and the “potency in vitro compared to gefitinib (Iressa), A549” value ([1]; ratio of IC50 values) is reported as “approximately two times”. The IC50 [2] was 5.12 µM, the “potency in vitro compared to gefitinib (Iressa), HT29” value ([2]; ratio of IC50 values) was “several times better potency” and the IC50 [3] was 3.6 µM. For the same compound, the “potency in vitro compared to gefitinib (Iressa), DU145” value ([3]; ratio of IC50 values) was “several times better potency”.

For `CSc1cc2ncnc(Nc3cc(C(C)(C)C)[se]c3C(N)=O)c2s1` [Compound 14, 3-(6-(methylthio)thiopheno[3,2-d]pyrimidin-4-ylamino)-5-tert-butyl-selenophene-2-carboxamide], the melting point was 260 to 262 °C, the inhibition at 10 µg/mL [1] was 3.54% and the inhibition at 10 µg/mL [2] was 53.5%. The inhibition at 10 µg/mL [3] was 7.81%.

In the case of `CC(C)(C)c1cc(Nc2ncnc3oc(-c4ccccc4)cc23)c(C(N)=O)[se]1` [Compound 15, 3-(6-phenylfuro[2,3-d]pyrimidin-4-ylamino)-5-tert-butylselenophene-2-carboxamide], the melting point is reported as 280 to 282 °C, the inhibition at 10 µg/mL [1] is reported as 5.87% and the inhibition at 10 µg/mL [2] is reported as 25.4%. For the same compound, the inhibition at 10 µg/mL [3] was 3.44%.

With `CC(C)(C)c1cc2c(Nc3cc(C(C)(C)C)[se]c3C(N)=O)ncnc2o1` [Compound 16, 3-(6-tert-butylfuro[2,3-d]pyrimidin-4-ylamino)-5-tert-butylselenophene-2-carboxamide] the melting point was 288 to 290 °C, the inhibition at 10 µg/mL [1] was 1.6% and the inhibition at 10 µg/mL [2] was 20.3%. For the same compound, the inhibition at 10 µg/mL [3] was 2.81%.

Work on `COC(=O)c1cc(Nc2ncnc3[nH]c(C)c(C)c23)c(C)[se]1` [Compound 17, methyl 4-(5,6-dimethyl-7H-pyrrolo[2,3-d]pyrimidin-4-ylamino)-5-methylselenophene-2-carboxylate] yielded a melting point of 238 to 240 °C, an inhibition at 10 µg/mL [1] of 2.66% and an inhibition at 10 µg/mL [2] of 4.54%. It also gave an inhibition at 10 µg/mL [3] of 7.62%.

For `COc1cc2ncnc(N(C)c3cc(C(C)(C)C)[se]c3C(N)=O)c2cc1OC` [Compound 21, 3-(N-(6,7-dimethoxyquinazolin-4-yl)-N-methylamino)-5-tert-butylseleno-phene-2-carboxamide], the IC50 [4] was 2.33 µM, the “potency compared to Iressa, HepG2” value [4] was “fifteen” and the IC50 [5] was 2.86 µM. The “potency compared to Iressa, MDA-MB-231” value [5] was “sixteen”, the IC50 [6] was 2.97 µM and the “potency compared to Iressa, HeLa” value [6] was “seventeen times”. For the same compound, the melting point was 256 to 258 °C, the IC50 [1] was 3.59 µM and the IC50 [2] was 3.88 µM. It also gave an IC50 [3] of 3.95 µM.

In the case of `COc1cc2nc(CN(C)C)nc(Nc3cc(C(C)(C)C)[se]c3C(N)=O)c2cc1OC` [Compound 27], the IC50 [4] is reported as 2.34 µM, the “potency compared to Iressa, HepG2” value [4] is reported as “equally more potent than Iressa” and the IC50 [5] is reported as 3.09 µM. The “potency compared to Iressa, MDA-MB-231” value [5] was “equally more potent than Iressa”, the IC50 [6] was 2.88 µM and the “potency compared to Iressa, HeLa” value [6] was “equally more potent than Iressa”. For the same compound, the “inhibition of FGF induced capillary-like endothelial tube formation” value [7] was “inhibits capillary-like endothelial tube formation in vitro; also recorded: inhibited FGF induced capillary formation in a dose dependent manner”, the “inhibition of FGF induced capillary-like endothelial tube formation” value ([7]; listed as compound 27) was “significantly inhibiting endothelial capillary formation in a dose dependent manner” and the IC50 [1] was 3.58 µM. It also gave an IC50 [2] of 2.86 µM and an IC50 [3] of 2.97 µM.

`COc1cc2nc(-c3ccc(Cl)cc3)nc(Nc3cc(C(C)(C)C)[se]c3C(N)=O)c2cc1OC` [Compound 28, 3-(2-(4-chlorophenyl)-6,7-dimethoxyquinazolin-4-ylamino)-5-tert-butylselenophene-2-carboxamide] showed a melting point of 268 to 270 °C, an inhibition at 10 µg/mL [1] of 9% and an inhibition at 10 µg/mL [2] of 2.69%. The inhibition at 10 µg/mL [3] was 10.4%.

`COc1cc2ncnc(Oc3cc(C(C)(C)C)[se]c3C(N)=O)c2cc1OC` [Compound 29, 3-(6,7-dimethoxyquinazolin-4-yloxy)-5-tert-butylselenophene-2-carboxamide] showed a melting point of 220 to 224 °C, an inhibition at 10 µg/mL [1] of 15.6% and an inhibition at 10 µg/mL [2] of 44.6%. It also gave an inhibition at 10 µg/mL [3] of 43%.
